According to ChEMBL document CHEMBL5608211, “Antibody-drug conjugates for targeted cancer therapy: Recent advances in potential payloads” (Eur J Med Chem, 2024):
Starred links: 1 amine or outer side, 2 acyl side, 3 side chain; linkers in the order of their positions; H or OH if unused. Positions of bridges follow the written chain, without caps; N, C: chain ends. Non-standard residues stand in square brackets, D forms with d. Residues, ends and D or L forms follow the SMILES beside them. *: point of attachment. X7 = C[C@H]([C@H](N[*:3])C(=O)C[C@@H](Cc1c([*:2])[nH]c2cc(O)ccc12)C(=O)[*:1])[C@@H](O)CO; Dolaproine = CO[C@@H]([C@@H]1CCCN1)[C@@H](C)C(=O)O; X10 = CC(C)[C@@H](C(=O)[*:2])N(C)CCCCN(C)[*:1]; X1 = O=C([C@]1(N[*:1])C[C@@H]1c1ccccc1)[*:2]; Dil = CC[C@H](C)[C@H](NC)[C@@H](CC(=O)O)OC; X3 = CCOP(=O)(OCC)[C@@H](N[*:1])C(=O)[*:2]; Pro(4R-NH2) = N[C@H]1CN[C@H](C(=O)O)C1; X9 = c1ccc(C[C@H](N*)c2nn[nH]n2)cc1; NMe2Val = CC(C)[C@@H](C(=O)*)N(C)C; X8 = CCOP(=O)(O)[C@H](Cc1ccccc1)N*; X6 = C[C@@H](N*)[C@@H](O)c1ccccc1; NMeV = CN[C@H](C(=O)O)C(C)C; X5 = c1ccc(COC2CON(*)C2)cc1; X2 = c1ccc2c(c1)CON(*)C2; Boc = CC(C)(C)OC(=O)*; X4 = C1=CC2CCC1ON2*; NHOH = ON*

How the values were obtained:
HT-29 [1] = assay: Antiproliferative activity against human HT-29 cells incubated for 48 to 96 hrs by MTT assay; assay type: functional, cell-based
786-0 = assay: Antiproliferative activity against human 786-0 cells incubated for 48 to 96 hrs by MTT assay; assay type: functional, cell-based
[2] = Inhibition of RNA polymerase II phosphorylation in human HeLa cells by Western blot analysis; assay type: cell-based
BT-474 = assay: Antiproliferative activity against human BT-474 cells assessed as inhibition of cell growth incubated for 4 days by WST-8 assay; assay type: functional, cell-based; conditions: BT-474, 96 h
H3396 [3] = assay: Cytotoxicity against human H3396 cells assessed as inhibition of cell growth incubated for 96 hrs by Alamar blue assay; assay type: functional, cell-based; conditions: H3396, 96 h
[4] = Cytotoxicity against human L540cy cells assessed as reduction in cell growth incubated for 4 days by CellTiter-Glo luminescent assay; assay type: functional, cell-based; conditions: 96 h
A2780 [5] = assay: Cytotoxicity against human A2780 cells assessed as inhibition of cell growth incubated for 72 hrs by MTT assay; assay type: functional, cell-based; conditions: A2780, 72 h
Tubulin = assay: Displacement of fluorescent Maytansine probe from tubulin (unknown origin) assessed as dissociation constant by competitive binding based fluorescence anisotropy; assay type: protein-complex assay, Homo sapiens
A2058 = assay: Cytotoxicity against human A2058 cells assessed as inhibition of cell growth incubated for 96 hrs by CellTiter-Glo luminescent assay; assay type: functional, cell-based; conditions: A2058, 96 h
HCT-116 = assay: Cytotoxicity against human HCT-116 cells incubated for 96 hrs by resazurin dye based fluorescence spectrometric assay; assay type: functional, cell-based; conditions: HCT-116, 96 h
[6] = Apparent permeability across basolateral to apical side in human Caco-2 cells incubated for 2 hrs by HPLC-MS analysis; assay type: ADME, cell-based
SK-OV-3 = assay: Cytotoxicity against human SK-OV-3 cells incubated for 96 hrs by PrestoBlue reagent based cell viability assay; assay type: functional; conditions: SK-OV-3, 96 h
SK-BR-3 = assay: Growth inhibition of human SK-BR-3 cells incubated for 72 hrs by CellTiter-Glo luminescent assay; assay type: functional
H3396 [7] = assay: Cytotoxicity against human H3396 cells incubated for 96 hrs by resazurin dye based fluorescence spectrometric assay; assay type: functional, cell-based; conditions: H3396, 96 h
HT-29 [8] = assay: Antiproliferative activity against human HT-29 cells assessed as inhibition of cell growth incubated for 96 hrs by SRB assay; assay type: functional, cell-based; conditions: HT-29, 96 h
CCRF-CEM = assay: Cytotoxicity against human CCRF-CEM cells; assay type: functional, cell-based
HT-29 [9] = assay: Antiproliferative activity against human HT-29 cells assessed as inhibition of cell growth incubated for 48 to 96 hrs by MTT assay; assay type: functional, cell-based
KB 3-1 = assay: Cytotoxicity against human KB 3-1 cells assessed as inhibition of cell growth incubated for 3 days by SRB assay; assay type: functional, cell-based; conditions: KB 3-1, 72 h
A2780 [10] = assay: Cytotoxicity against human A2780 cells; assay type: functional, cell-based
KARPAS-299 = assay: Cytotoxicity against human KARPAS-299 cells incubated for 96 hrs by Alamar blue assay; assay type: functional, cell-based; conditions: KARPAS-299, 96 h

SMILES: CCOP(=O)(OCC)[C@@H](NC(=O)[C@H](C)[C@@H](OC)[C@@H]1CCCN1C(=O)C[C@@H](OC)[C@H]([C@@H](C)CC)N(C)C(=O)[C@@H](NC(=O)[C@@H](NC)C(C)C)C(C)C)C(=O)N1OC2C=CC1CC2 (some centres undefined) (H-[NMeV]V[Dil][Dolaproine][X3]-X4)
- IC50 (HT-29 [1]): 0.5 nM
- IC50 (786-0): 0.5 nM

SMILES: CC[C@H](C)[C@@H]1NC(=O)CNC(=O)[C@H]2CC(=O)[C@H]([C@@H](C)[C@@H](O)CO)NC(=O)[C@@H]3C[C@@H](C#N)CN3C(=O)[C@H](CC(N)=O)NC(=O)[C@H](CSc3[nH]c4cc(O)ccc4c3C2)NC(=O)CNC1=O
- IC50 [2]: 480 nM

SMILES: CC[C@H](C)[C@@H]([C@@H](CC(=O)N1C[C@@H](N)C[C@H]1[C@H](OC)[C@@H](C)C(=O)NCCc1c(F)cccc1F)OC)N(C)C(=O)[C@@H](NC(=O)[C@H](C(C)C)N(C)C)C(C)C
- IC50 (BT-474): < 0.4 nM

SMILES: CC[C@H](C)[C@@H]([C@@H](CC(=O)N1CCC[C@H]1[C@H](OC)[C@@H](C)C(=O)N[C@H](C)[C@@H](O)c1ccccc1)OC)N(C)C(=O)[C@@H](NC(=O)[C@@H](NC)C(C)C)C(C)C (H-[NMeV]V[Dil][Dolaproine]-X6)
- IC50 (H3396 [3]): 0.1 nM

SMILES: Nc1cccc(C(=O)N2CCC(CCCCNC(=O)/C=C/c3cccnc3)CC2)c1
- EC50 [4]: 6.3 nM

SMILES: COc1cc2cc(c1Cl)N(C)C(=O)C[C@H](OC(=O)c1ccccc1)[C@@]1(C)O[C@H]1[C@H](C)[C@@H]1C[C@@](O)(NC(=O)O1)[C@H](OC)/C=C/C=C(\C)C2
- IC50 (A2780 [5]): 0.11 nM
- Kd (Tubulin): 51 nM

SMILES: CC[C@H](C)[C@@H]([C@@H](CC(=O)N1CCC[C@H]1[C@H](OC)[C@@H](C)C(=O)N[C@@H](Cc1ccccc1)C(=O)O)OC)N(C)C(=O)[C@@H](NC(=O)[C@H](C(C)C)N(C)CCCCN(C)C(=O)OC(C)(C)C)C(C)C (Boc-[X10]V[Dil][Dolaproine]F-OH)
- IC50 (A2058): 1 nM

SMILES: CC[C@H](C)[C@@H]([C@@H](CC(=O)N1CCC[C@H]1[C@H](OC)[C@@H](C)C(=O)N[C@@H](Cc1ccccc1)C(=O)N1CC(OCc2ccccc2)CO1)OC)N(C)C(=O)[C@@H](NC(=O)[C@@H](NC)C(C)C)C(C)C (some centres undefined) (H-[NMeV]V[Dil][Dolaproine]F-X5)
- IC50 (HT-29 [1]): 0.5 nM
- IC50 (786-0): 0.5 nM

SMILES: CC[C@H](C)[C@@H]([C@@H](CC(=O)N1C[C@@H](NC)C[C@H]1[C@H](OC)[C@@H](C)C(=O)NCCc1c(F)cccc1F)OC)N(C)C(=O)[C@@H](NC(=O)[C@H](C(C)C)N(C)C)C(C)C
- IC50 (BT-474): < 0.4 nM

SMILES: COc1cc2cc(c1Cl)N(C)C(=O)C[C@H](OC(C)=O)[C@@]1(C)O[C@H]1[C@H](C)[C@@H]1C[C@@](O)(NC(=O)O1)[C@H](OC)/C=C/C=C(\C)C2
- IC50 (A2780 [5]): 0.25 nM
- Kd (Tubulin): 11 nM

SMILES: CCOP(=O)(O)[C@H](Cc1ccccc1)NC(=O)[C@H](C)[C@@H](OC)[C@@H]1CCCN1C(=O)C[C@@H](OC)[C@H]([C@@H](C)CC)N(C)C(=O)[C@@H](NC(=O)[C@@H](NC)C(C)C)C(C)C (H-[NMeV]V[Dil][Dolaproine]-X8)
- IC50 (HCT-116): 0.09 nM

SMILES: CC[C@H](C)[C@@H]([C@@H](CC(=O)N1CCC[C@H]1[C@H](OC)[C@@H](C)C(=O)N[C@@]1(C(=O)N2Cc3ccccc3CO2)C[C@@H]1c1ccccc1)OC)N(C)C(=O)[C@@H](NC(=O)[C@@H](NC)C(C)C)C(C)C (H-[NMeV]V[Dil][Dolaproine][X1]-X2)
- IC50 (HT-29 [1]): 0.5 nM
- IC50 (786-0): 0.5 nM

SMILES: O=C(/C=C/c1cccnc1)NCCCCC1CCN(C(=O)c2ccccc2)CC1 [DAPORINAD]
- EC50 [4]: 6.7 nM

SMILES: CC[C@H](C)[C@@H]([C@@H](CC(=O)N1CCC[C@H]1[C@H](OC)[C@@H](C)C(=O)N[C@@H](Cc1ccccc1)c1nnc(-c2ccccc2)o1)OC)N(C)C(=O)[C@@H](NC(=O)[C@H](C(C)C)N(C)CCCC(=O)O)C(C)C
- Papp B→A at 2 h [6]: 2.9 ×10⁻⁶ cm/s

SMILES: CC[C@H](C)[C@@H]([C@@H](CC(=O)N1CCC[C@H]1[C@H](OC)[C@@H](C)C(=O)N[C@@H](Cc1ccccc1)c1nccs1)OC)N(C)C(=O)[C@@H](NC(=O)[C@H](C(C)C)N(C)CC(O)C(O)C(O)C(O)CN=[N+]=[N-])C(C)C (some centres undefined)
- IC50 (SK-OV-3): < 1 nM

SMILES: CC[C@H](C)[C@@H]([C@@H](CC(=O)N1CCC[C@H]1[C@H](OC)[C@@H](C)C(=O)N[C@@H](CC(C)C)C(=O)NO)OC)N(C)C(=O)[C@@H](NC(=O)[C@H](C(C)C)N(C)C)C(C)C (NMe2Val-V[Dil][Dolaproine]L-{NHOH})
- GI50 (SK-BR-3): 0.1 nM

SMILES: CC[C@H](C)[C@@H]([C@@H](CC(=O)N1CCC[C@H]1[C@H](OC)[C@@H](C)C(=O)N[C@@H](Cc1ccccc1)c1nn[nH]n1)OC)N(C)C(=O)[C@@H](NC(=O)[C@@H](NC)C(C)C)C(C)C (H-[NMeV]V[Dil][Dolaproine]-X9)
- IC50 (H3396 [7]): 6 nM

SMILES: CC[C@H](C)[C@@H]([C@@H](CC(=O)N1CCC[C@H]1[C@H](OC)[C@@H](C)C(=O)N[C@@H](Cc1ccccc1)c1nccs1)OC)N(C)C(=O)[C@@H](NC(=O)[C@H](C(C)C)N(C)C)C(C)C [DOLASTATIN-10]
- IC50 (HT-29 [8]): 0.018 nM

SMILES: COc1ccc(C[C@H]2NC(=O)/C=C/C[C@@H]([C@H](C)[C@@H](O)[C@@H](Cl)c3ccccc3)OC(=O)[C@H](CC(C)C)OC(=O)C(C)(C)CNC2=O)cc1Cl
- IC50 (CCRF-CEM): 0.027 nM

SMILES: CC[C@H](C)[C@@H]([C@@H](CC(=O)N1CCC[C@H]1[C@H](OC)[C@@H](C)C(=O)N[C@H](Cc1ccccc1)c1nnc(-c2ccccc2)o1)OC)N(C)C(=O)[C@@H](NC(=O)[C@H](C(C)C)N(C)CCCC(=O)O)C(C)C
- IC50 (HT-29 [9]): 0.1 nM
- Papp B→A at 2 h [6]: 4.5 ×10⁻⁶ cm/s

SMILES: C#CCCCCC(=O)O[C@H]1CC(=O)N(C)c2cc(cc(OC)c2Cl)C/C(C)=C/C=C/[C@@H](OC)[C@@]2(O)C[C@H](OC(=O)N2)[C@@H](C)[C@@H]2O[C@]12C
- IC50 (A2780 [5]): 0.033 nM
- Kd (Tubulin): 20 nM

SMILES: COc1cc2cc(c1Cl)N(C)C(=O)C[C@H](OC(=O)[C@H](C)N(C)C(C)=O)[C@]1(C)O[C@H]1[C@H](C)[C@@H]1C[C@@](O)(NC(=O)O1)[C@H](OC)/C=C/C=C(\C)C2 [MAYTANSINE]
- Kd (Tubulin): 14 nM

SMILES: CC[C@H](C)[C@@H]1NC(=O)CNC(=O)[C@H]2CC(=O)[C@H]([C@@H](C)[C@@H](O)CO)NC(=O)[C@@H]3C[C@@H](N)CN3C(=O)[C@H](CC(N)=O)NC(=O)[C@H](CSc3[nH]c4cc(O)ccc4c3C2)NC(=O)CNC1=O (GIGCN[Pro(4R-NH2)]; linker N-4-C via X7)
- IC50 [2]: 550 nM

SMILES: CN[C@H](C(=O)N[C@H](C(=O)N(C)[C@H](/C=C(\C)C(=O)N1CCC[C@H]1[C@H](OC)[C@@H](C)C(=O)N[C@@H](Cc1ccccc1)c1nccs1)C(C)C)C(C)(C)C)C(C)(C)c1ccccc1
- IC50 (KB 3-1): 0.75 nM

SMILES: CC(=O)N[C@@H](C)c1ccc(NC(=O)[C@H]2C[C@@H]2c2cccnc2)cc1
- IC50 (A2780 [10]): 5 nM

SMILES: COc1ccc(C[C@H]2NC(=O)/C=C/C[C@@H]([C@H](C)[C@H]3O[C@@H]3c3ccc(F)cc3)OC(=O)[C@H](CC(C)C)OC(=O)C(C)(C)CNC2=O)cc1Cl
- IC50 (CCRF-CEM): 0.033 nM

SMILES: CC[C@H](C)[C@@H]([C@@H](CC(=O)N1CCC[C@H]1[C@H](OC)[C@@H](C)C(=O)N[C@H](Cc1ccccc1)C(=O)OC)OC)N(C)C(=O)[C@@H](NC(=O)c1ccc(N)cc1)C(C)C
- IC50 (KARPAS-299): 0.12 nM
